Cc1cccc(N(C)C(=S)Oc2ccc3ccccc3c2)c1
solubility (mole fraction)
Settings | in acetic acid | in ethanol | in ethylene glycol | in isobutanol | in isopropanol | in methanol | in n-butanol | in n-octanol | in n-propanol | in propylene glycol
283.15 K | 0.00186 | 0.000558 | 5.01e-05 | 0.000544 | 0.000365 | 0.000402 | 0.00082 | 0.00145 | 0.000679 | 0.000155
288.15 K | 0.00249 | 0.000765 | 5.88e-05 | 0.000734 | 0.00054 | 0.0005 | 0.00115 | 0.00189 | 0.00104 | 0.000214
293.15 K | 0.00307 | 0.000957 | 7.5e-05 | 0.000933 | 0.000731 | 0.000691 | 0.00154 | 0.00251 | 0.00136 | 0.000264
298.15 K | 0.00359 | 0.00125 | 8.76e-05 | 0.00137 | 0.000965 | 0.000843 | 0.00207 | 0.00311 | 0.00171 | 0.000335
303.15 K | 0.0045 | 0.00161 | 0.000107 | 0.00174 | 0.00125 | 0.00102 | 0.00264 | 0.004 | 0.00218 | 0.000413
308.15 K | 0.00574 | 0.00196 | 0.000129 | 0.0025 | 0.00168 | 0.00119 | 0.00345 | 0.00526 | 0.00286 | 0.000542
313.15 K | 0.00779 | 0.00241 | 0.000156 | 0.00316 | 0.00225 | 0.00149 | 0.00448 | 0.00708 | 0.00351 | 0.00068
318.15 K | 0.00993 | 0.00287 | 0.000201 | 0.00409 | 0.00273 | 0.00181 | 0.00568 | 0.00896 | 0.00451 | 0.000785
323.15 K | 0.0127 | 0.00365 | 0.000258 | 0.00544 | 0.00357 | 0.00224 | 0.0076 | 0.0115 | 0.00606 | 0.000953
328.15 K | 0.0156 | 0.00448 | 0.00031 | 0.00705 | 0.00437 | 0.00267 | 0.0097 | 0.0148 | 0.00772 | 0.00125

— BigSolDB 2.1
